Reference: patent publication US20140227335A1 (priority 2012, published 2014)

Tests used:
[1] = test system: HIV-1 92UG029; experiment: Anti-HIV efficacy in fresh human PBMC (reverse transcriptase activity); format: cell-based; details: Human immunodeficiency virus 1, PBMC, 168 h; 92UG029 (clade A, X4); PBMCs, MOI = 0.1, 7 days
[2] = test system: HIV-20DC310342; experiment: HIV-2 infectivity assay in TZM-bl cells; format: cell-based; details: Human immunodeficiency virus 2, TZM-bl
[3] = test system: SIVmac251 32H; experiment: SIV infectivity assay in TZM-bl cells; format: cell-based; details: Simian immunodeficiency virus
[4] = test system: HIV-1 92UG024; experiment: HIV infectivity assay in TZM-bl cells; format: cell-based; details: 92UG024 (clade D, X4); for IC50: Human immunodeficiency virus 1, TZM-bl
[5] = test system: Lactobacillus crispatus ATCC 33197; experiment: Lactobacillus toxicity testing (CFU); format: cell-based
Description: (§1) Reference strains of L. crispatus and L. jensenii were obtained from the ATCC (Manassas, Va.) and cultured on Columbia blood agar plates at 35° C. in air enriched with 6% CO2. Bacterial suspensions were prepared in saline or ACES buffer to a density of 2 McFarland units (˜2×10^8 bacteria/mL), and exposed to PD (300 μM) or DMSO (10%) for 30 minutes at 37° C. After incubation, the cells were serially diluted in ACES buffer, pH 7.0 (Sigma-Aldrich, St. Louis, Mo.) and plated on blood agar plates to quantify colony forming unit per mL (CFU/mL)
(§2) Different bacterial strains were incubated with 300 μM PD or solvent DMSO-containing control media at 37° C. for 30 min and plated on blood agar plates to estimate their corresponding colony forming units per ml (CFU/ml). Less than 1 log difference between control and test CFU is considered non-toxic 17.

[6] = test system: Lactobacillus jensenii ATCC 25258; experiment: Lactobacillus toxicity testing (CFU); format: cell-based
Description: as §1, §2

[7] = test system: Lactobacillus jensenii LBP 28Ab; experiment: Lactobacillus toxicity testing (CFU); format: cell-based
Description: as §1, §2

[8] = test system: HIV-1 92TH026; experiment: HIV infectivity assay in TZM-bl cells; format: cell-based; details: 92TH026 (clade B, R5); for IC50: Human immunodeficiency virus 1, TZM-bl
[9] = test system: HIV-1 93IN017; experiment: HIV infectivity assay in TZM-bl cells; format: cell-based; details: 93IN017 (clade C, X4); for IC50: Human immunodeficiency virus 1, TZM-bl
[10] = test system: HIV-1 93IN101; experiment: HIV infectivity assay in TZM-bl cells; format: cell-based; details: 93IN101 (clade C, R5); for IC50: Human immunodeficiency virus 1, TZM-bl
[11] = Cytotoxicity on human cell lines (Cell Titer-Glo); format: cell-based
[12] = Lactobacillus toxicity testing (all strains, summary); format: cell-based; details: Lactobacillus (L. crispatus and L. jensenii), suspensions of vaginal commensal Lactobacillus strains; vaginal commensal bacteria Lactobacilli
Description: as §1, §2

[13] = test system: Lactobacilli; experiment: as above; format: cell-based; details: 300 μM PD, 37° C., 30 min
Description: as §1, §2

[14] = test system: freshly activated human PBMC; experiment: Compound cytotoxicity in uninfected PBMC (MTS assay); details: freshly activated PBMCs, uninfected plates, MTS assay, 7 days
[15] = as above; details: human
[16] = test system: Jc1 HCVcc; experiment: microbe, parasite or virus in culture; format: cell-based, HCV; details: Hepatitis C virus, Huh7.5, read-out: IC50, inactivation of cell-free HCVcc
[17] = test system: Dengue virus (DenV), serotype 2 New Guinea C strain; experiment: Dengue virus plaque assay on Vero cells; format: cell-based; details: 300 μM PD
[18] = test system: VSV-Gpp; format: cell-based, HIV lentivirus pseudotyped with VSV-G
[19] = test system: HIV-1 93BR029; experiment: microbe, parasite or virus in culture; format: cell-based; details: 93BR029 (clade F, R5); for IC50: Human immunodeficiency virus 1, TZM-bl
[20] = test system: HCVcc; format: cell-based, HCV
[21] = 300 μM PD, less than 1 log difference is considered non-toxic

`N=C1Sc2ccccc2C2=NCCCN12` [PD, PD 404,182] gave an IC50 [1] of 1.18 µM, an IC90 [1] of 4.67 µM and an IC50 [2] of 1.8 µM. For the same compound, the IC50 [3] was 1.1 µM, the “IC50 (DMEM; IC90 per footnote)” value ([4]; PD in DMEM + 10% FBS) was 1.4 ± 0.2 µM and the “IC50 (Cervical Fluid; IC90 per footnote)” value ([4]; PD in cervical fluids) was 1.8 ± 0.2 µM. For the same compound, the “IC50 (Seminal Plasma; IC90 per footnote)” value ([4]; PD in seminal plasma) was 1.58 ± 0.2 µM, the IC50 ([4]; PD in DMEM + 10% FBS) was 3.33 µM and the IC50 ([4]; PD in cervical fluids) was 0.55 µM. The IC50 ([4]; PD in seminal plasma) was 0.42 µM, the “Log(Control) − Log(PD)” value [5, 21] was −0.019 and the “CFU of Lactobacillus treated with 300 μM PD” value (“CFU of Lactobacillus treated” below) ([5]; 30 min, 37° C.) was 7,260,000 CFU. For the same compound, the “Log(Control) − Log(PD)” value [6, 21] was −0.122, the “CFU of Lactobacillus treated” value ([6]; 30 min, 37° C.) was 7,533,333 CFU and the “Log(Control) − Log(PD)” value [7, 21] was −0.021. The “CFU of Lactobacillus treated” value ([7]; 30 min, 37° C.) was 10,033,333 CFU, the IC90 ([8]; PD in DMEM + 10% FBS) was 2.8 ± 0.2 µM and the IC90 ([8]; PD in cervical fluids) was 3.3 ± 0.1 µM. The IC90 ([8]; PD in seminal plasma) was 2.95 ± 0.16 µM, the IC50 ([8]; PD in DMEM + 10% FBS) was 0.35 µM and the IC50 ([8]; PD in cervical fluids) was 0.61 µM. The IC50 ([8]; PD in seminal plasma) was 0.43 µM, the “IC50 (DMEM; IC90 per footnote)” value ([9]; PD in DMEM + 10% FBS) was 1.9 ± 0.2 µM and the “IC50 (Cervical Fluid; IC90 per footnote)” value ([9]; PD in cervical fluids) was 2.4 ± 0.2 µM. The “IC50 (Seminal Plasma; IC90 per footnote)” value ([9]; PD in seminal plasma) was 2.09 ± 0.19 µM, the IC50 ([9]; PD in DMEM + 10% FBS) was 0.4 µM and the IC50 ([9]; PD in cervical fluids) was 0.7 µM. For the same compound, the IC50 ([9]; PD in seminal plasma) was 0.45 µM, the “IC50 (DMEM; IC90 per footnote)” value ([10]; PD in DMEM + 10% FBS) was 5.1 ± 0.3 µM and the “IC50 (Cervical Fluid; IC90 per footnote)” value ([10]; PD in cervical fluids) was 5.5 ± 0.2 µM. For the same compound, the “IC50 (Seminal Plasma; IC90 per footnote)” value ([10]; PD in seminal plasma) was 5.36 ± 0.37 µM, the IC50 ([10]; PD in DMEM + 10% FBS) was 1.5 µM and the IC50 ([10]; PD in cervical fluids) was 1.8 µM. The IC50 ([10]; PD in seminal plasma) was 1.76 µM, the CC50 ([11]; HepG2, HCT-8, Huh-7, Huh-7.5, TZM, PC3 and 293T cells, seven different human cell lines) was greater than 300 µM and the CC50 ([11]; human, TZM-bl (HeLa) cervical cancer cells) was greater than 300 µM. The CC50 at 30 min [12] was greater than 300 µM, the “effect on Lactobacillus strains” value [13] was “no adverse effect on all strains of bacteria tested” and the CC50 [14] was greater than 200 µM. For the same compound, the cytotoxicity at 7 days, 200 μM [15] was 48%, the CC50 at 7 days ([15]; CC50, freshly activated PBMCs, uninfected plates, MTS assay, 7 days) was roughly 200 µM and the IC50 [16] was 11 µM. For the same compound, the “effect on infectivity of DenV” value [17] was “no significant inhibitory effect”, the “reversal of PD's antiviral effect by liposomes” value [18] was “not able to reverse PD's antiviral effect” and the IC90 ([19]; PD in DMEM + 10% FBS) was 3.5 ± 0.2 µM. For the same compound, the IC90 ([19]; PD in cervical fluids) was 4.6 ± 0.3 µM, the IC90 ([19]; PD in seminal plasma) was 3.72 ± 0.26 µM and the IC50 ([19]; PD in DMEM + 10% FBS) was 0.7 µM. For the same compound, the IC50 ([19]; PD in cervical fluids) was 1.2 µM, the IC50 ([19]; PD in seminal plasma) was 0.85 µM and the “inhibition of HCVcc infectivity” value [20] was greater than 10 fold.
